Test results: ChEMBL document CHEMBL3885881, “DrugMatrix”

Species: Rattus norvegicus
Assay: DrugMatrix - Regimen: Daily Repeat
Assay type: toxicity, organism-based, Sprague-Dawley
Parameters: regimen Daily Repeat, gender Male, age 6-8 weeks
Conditions: in vivo, po, route oral GAVAGE, vehicle .5 % CMC; for ABSOLUTE BASOPHIL / ABSOLUTE EOSINOPHIL / ABSOLUTE LYMPHOCYTE / ABSOLUTE MONOCYTE / ABSOLUTE SEGMENTED NEUTROPHIL / BASOPHIL / EOSINOPHIL / ERYTHROCYTE COUNT / HEMATOCRIT / HEMOGLOBIN / LEUKOCYTE COUNT / LYMPHOCYTE / MEAN CORPUSCULAR HEMOGLOBIN / MEAN CORPUSCULAR HEMOGLOBIN CONCENTRATION / MEAN CORPUSCULAR VOLUME / MONOCYTE / NEUTROPHIL / NUCLEATED RED BLOOD CELLS / PLATELET COUNT: tissue Blood; for ALANINE AMINOTRANSFERASE / ALBUMIN / ALKALINE PHOSPHATASE / ASPARTATE AMINOTRANSFERASE / BLOOD UREA NITROGEN / CARBON DIOXIDE / CHLORIDE / CHOLESTEROL / CREATINE PHOSPHOKINASE / CREATININE / GLUCOSE / LACTATE DEHYDROGENASE / LIPASE / PHOSPHORUS / POTASSIUM / SODIUM / TOTAL BILIRUBIN / TOTAL PROTEIN / URIC ACID: tissue Plasma
[1] = 0 mg/kg, 72 h, dose level Control, time 3 day
[2] = 0 mg/kg, 120 h, dose level Control, time 5 day
[3] = 10 mg/kg, 72 h, dose level Low, time 3 day
[4] = 10 mg/kg, 120 h, dose level Low, time 5 day
[5] = 2500 mg/kg, 72 h, dose level High, time 3 day

CCOC(=O)[C@H](CCc1ccccc1)N[C@@H](C)C(=O)N1Cc2ccccc2C[C@H]1C(=O)O
ABSOLUTE BASOPHIL [1]: 0 CELLS/uL
ABSOLUTE EOSINOPHIL [1]: 0 CELLS/uL
ABSOLUTE LYMPHOCYTE [1]: 12191.17 CELLS/uL
ABSOLUTE MONOCYTE [1]: 183.17 CELLS/uL
ABSOLUTE SEGMENTED NEUTROPHIL [1]: 1192.33 CELLS/uL
BASOPHIL [1]: 0%
EOSINOPHIL [1]: 0%
ERYTHROCYTE COUNT [1]: 5.51 x10E6/uL
HEMATOCRIT [1]: 35.45%
HEMOGLOBIN [1]: 13.82 G/DL
LEUKOCYTE COUNT [1]: 13.57 x10E3/uL
LYMPHOCYTE [1]: 89.83%
MEAN CORPUSCULAR HEMOGLOBIN [1]: 25.1 pg
MEAN CORPUSCULAR HEMOGLOBIN CONCENTRATION [1]: 38.98 G/DL
MEAN CORPUSCULAR VOLUME [1]: 64.42 fL
MONOCYTE [1]: 1.33%
NEUTROPHIL [1]: 8.83%
NUCLEATED RED BLOOD CELLS [1]: 0 /100WBC
PLATELET COUNT [1]: 1118.17 x10E3/uL
ALANINE AMINOTRANSFERASE [1]: 55 u/L
ALBUMIN [1]: 4.15 G/DL
ALKALINE PHOSPHATASE [1]: 449.5 u/L
ASPARTATE AMINOTRANSFERASE [1]: 112.83 u/L
BLOOD UREA NITROGEN [1]: 17.33 mg/dL
CARBON DIOXIDE [1]: 29.5 mmol/L
CHLORIDE [1]: 101 MEQ/L
CHOLESTEROL [1]: 70 mg/dL
CREATINE PHOSPHOKINASE [1]: 1325.83 u/L
CREATININE [1]: 0.18 mg/dL
GLUCOSE [1]: 171.5 mg/dL
LACTATE DEHYDROGENASE [1]: 386 u/L
LIPASE [1]: 10 u/L
PHOSPHORUS [1]: 11.57 mg/dL
POTASSIUM [1]: 6.21 MEQ/L
SODIUM [1]: 141.65 MEQ/L
TOTAL BILIRUBIN [1]: 0.15 mg/dL
TOTAL PROTEIN [1]: 5.75 G/DL
URIC ACID [1]: 1.28 mg/dL
ABSOLUTE BASOPHIL [2]: 0 CELLS/uL
ABSOLUTE EOSINOPHIL [2]: 138.17 CELLS/uL
ABSOLUTE LYMPHOCYTE [2]: 13283.17 CELLS/uL
ABSOLUTE MONOCYTE [2]: 303.83 CELLS/uL
ABSOLUTE SEGMENTED NEUTROPHIL [2]: 1308.17 CELLS/uL
BASOPHIL [2]: 0%
EOSINOPHIL [2]: 1%
ERYTHROCYTE COUNT [2]: 5.32 x10E6/uL
HEMATOCRIT [2]: 33.8%
HEMOGLOBIN [2]: 13.63 G/DL
LEUKOCYTE COUNT [2]: 15.03 x10E3/uL
LYMPHOCYTE [2]: 88.33%
MEAN CORPUSCULAR HEMOGLOBIN [2]: 25.68 pg
MEAN CORPUSCULAR HEMOGLOBIN CONCENTRATION [2]: 40.35 G/DL
MEAN CORPUSCULAR VOLUME [2]: 63.67 fL
MONOCYTE [2]: 1.83%
NEUTROPHIL [2]: 8.83%
NUCLEATED RED BLOOD CELLS [2]: 0 /100WBC
PLATELET COUNT [2]: 1097.5 x10E3/uL
ALANINE AMINOTRANSFERASE [2]: 54.5 u/L
ALBUMIN [2]: 4.27 G/DL
ALKALINE PHOSPHATASE [2]: 337 u/L
ASPARTATE AMINOTRANSFERASE [2]: 94.67 u/L
BLOOD UREA NITROGEN [2]: 17 mg/dL
CARBON DIOXIDE [2]: 28.33 mmol/L
CHLORIDE [2]: 101.5 MEQ/L
CHOLESTEROL [2]: 71.33 mg/dL
CREATINE PHOSPHOKINASE [2]: 628.17 u/L
CREATININE [2]: 0.19 mg/dL
GLUCOSE [2]: 177.83 mg/dL
LACTATE DEHYDROGENASE [2]: 500.5 u/L
LIPASE [2]: 9.5 u/L
PHOSPHORUS [2]: 12.3 mg/dL
POTASSIUM [2]: 5.63 MEQ/L
SODIUM [2]: 143.03 MEQ/L
TOTAL BILIRUBIN [2]: 0.2 mg/dL
TOTAL PROTEIN [2]: 6.02 G/DL
URIC ACID [2]: 1.5 mg/dL
ABSOLUTE BASOPHIL [3]: 0 CELLS/uL
ABSOLUTE EOSINOPHIL [3]: 39 CELLS/uL
ABSOLUTE LYMPHOCYTE [3]: 11213 CELLS/uL
ABSOLUTE MONOCYTE [3]: 0 CELLS/uL
ABSOLUTE SEGMENTED NEUTROPHIL [3]: 1148 CELLS/uL
BASOPHIL [3]: 0%
EOSINOPHIL [3]: 0.33%
ERYTHROCYTE COUNT [3]: 5.3 x10E6/uL
HEMATOCRIT [3]: 34.07%
HEMOGLOBIN [3]: 13.93 G/DL
LEUKOCYTE COUNT [3]: 12.4 x10E3/uL
LYMPHOCYTE [3]: 90.33%
MEAN CORPUSCULAR HEMOGLOBIN [3]: 26.33 pg
MEAN CORPUSCULAR HEMOGLOBIN CONCENTRATION [3]: 40.9 G/DL
MEAN CORPUSCULAR VOLUME [3]: 64.37 fL
MONOCYTE [3]: 0%
NEUTROPHIL [3]: 9.33%
NUCLEATED RED BLOOD CELLS [3]: 0 /100WBC
PLATELET COUNT [3]: 1446.33 x10E3/uL
ALANINE AMINOTRANSFERASE [3]: 57.33 u/L
ALBUMIN [3]: 4.43 G/DL
ALKALINE PHOSPHATASE [3]: 414 u/L
ASPARTATE AMINOTRANSFERASE [3]: 111.67 u/L
BLOOD UREA NITROGEN [3]: 19.33 mg/dL
CARBON DIOXIDE [3]: 27 mmol/L
CHLORIDE [3]: 101.33 MEQ/L
CHOLESTEROL [3]: 71.67 mg/dL
CREATINE PHOSPHOKINASE [3]: 1227 u/L
CREATININE [3]: 0.15 mg/dL
GLUCOSE [3]: 179.67 mg/dL
LACTATE DEHYDROGENASE [3]: 229.67 u/L
LIPASE [3]: 10 u/L
PHOSPHORUS [3]: 12.13 mg/dL
POTASSIUM [3]: 6.89 MEQ/L
SODIUM [3]: 142.53 MEQ/L
TOTAL BILIRUBIN [3]: 0.23 mg/dL
TOTAL PROTEIN [3]: 6.1 G/DL
URIC ACID [3]: 1.73 mg/dL
ABSOLUTE BASOPHIL [4]: 0 CELLS/uL
ABSOLUTE EOSINOPHIL [4]: 0 CELLS/uL
ABSOLUTE LYMPHOCYTE [4]: 9146.67 CELLS/uL
ABSOLUTE MONOCYTE [4]: 149.33 CELLS/uL
ABSOLUTE SEGMENTED NEUTROPHIL [4]: 970.67 CELLS/uL
BASOPHIL [4]: 0%
EOSINOPHIL [4]: 0%
ERYTHROCYTE COUNT [4]: 5.39 x10E6/uL
HEMATOCRIT [4]: 34.63%
HEMOGLOBIN [4]: 13.67 G/DL
LEUKOCYTE COUNT [4]: 10.27 x10E3/uL
LYMPHOCYTE [4]: 89.33%
MEAN CORPUSCULAR HEMOGLOBIN [4]: 25.4 pg
MEAN CORPUSCULAR HEMOGLOBIN CONCENTRATION [4]: 39.47 G/DL
MEAN CORPUSCULAR VOLUME [4]: 64.27 fL
MONOCYTE [4]: 1.33%
NEUTROPHIL [4]: 9.33%
NUCLEATED RED BLOOD CELLS [4]: 0 /100WBC
PLATELET COUNT [4]: 1332.67 x10E3/uL
ALANINE AMINOTRANSFERASE [4]: 53 u/L
ALBUMIN [4]: 4.43 G/DL
ALKALINE PHOSPHATASE [4]: 351.67 u/L
ASPARTATE AMINOTRANSFERASE [4]: 77 u/L
BLOOD UREA NITROGEN [4]: 17.33 mg/dL
CARBON DIOXIDE [4]: 31.33 mmol/L
CHLORIDE [4]: 101.33 MEQ/L
CHOLESTEROL [4]: 100.67 mg/dL
CREATINE PHOSPHOKINASE [4]: 265.67 u/L
CREATININE [4]: 0.14 mg/dL
GLUCOSE [4]: 137.33 mg/dL
LACTATE DEHYDROGENASE [4]: 201.67 u/L
LIPASE [4]: 10 u/L
PHOSPHORUS [4]: 11.8 mg/dL
POTASSIUM [4]: 6.69 MEQ/L
SODIUM [4]: 143.93 MEQ/L
TOTAL BILIRUBIN [4]: 0.23 mg/dL
TOTAL PROTEIN [4]: 6.3 G/DL
URIC ACID [4]: 1.2 mg/dL
ABSOLUTE BASOPHIL [5]: 0 CELLS/uL
ABSOLUTE EOSINOPHIL [5]: 56.33 CELLS/uL
ABSOLUTE LYMPHOCYTE [5]: 14978 CELLS/uL
ABSOLUTE MONOCYTE [5]: 125.33 CELLS/uL
ABSOLUTE SEGMENTED NEUTROPHIL [5]: 2373.67 CELLS/uL
BASOPHIL [5]: 0%
EOSINOPHIL [5]: 0.33%
ERYTHROCYTE COUNT [5]: 5.38 x10E6/uL
HEMATOCRIT [5]: 35.27%
HEMOGLOBIN [5]: 13.67 G/DL
LEUKOCYTE COUNT [5]: 17.53 x10E3/uL
LYMPHOCYTE [5]: 85.67%
MEAN CORPUSCULAR HEMOGLOBIN [5]: 25.4 pg
MEAN CORPUSCULAR HEMOGLOBIN CONCENTRATION [5]: 38.77 G/DL
MEAN CORPUSCULAR VOLUME [5]: 65.5 fL
MONOCYTE [5]: 0.67%
NEUTROPHIL [5]: 13.33%
NUCLEATED RED BLOOD CELLS [5]: 0 /100WBC
PLATELET COUNT [5]: 1317 x10E3/uL
ALANINE AMINOTRANSFERASE [5]: 63.33 u/L
ALBUMIN [5]: 4.37 G/DL
ALKALINE PHOSPHATASE [5]: 310 u/L
ASPARTATE AMINOTRANSFERASE [5]: 80.67 u/L
BLOOD UREA NITROGEN [5]: 19.33 mg/dL
CARBON DIOXIDE [5]: 28.67 mmol/L
CHLORIDE [5]: 98.67 MEQ/L
CHOLESTEROL [5]: 107 mg/dL
CREATINE PHOSPHOKINASE [5]: 346.67 u/L
CREATININE [5]: 0.21 mg/dL
GLUCOSE [5]: 155.67 mg/dL
LACTATE DEHYDROGENASE [5]: 272.33 u/L
LIPASE [5]: 12.33 u/L
PHOSPHORUS [5]: 12.8 mg/dL
POTASSIUM [5]: 6.92 MEQ/L
SODIUM [5]: 140.37 MEQ/L
TOTAL BILIRUBIN [5]: 0.17 mg/dL
TOTAL PROTEIN [5]: 6.17 G/DL
URIC ACID [5]: 1.6 mg/dL
